Patent publication US20090068646A1, “METHODS AND KITS FOR DETECTING MUTATIONS” (PROMEGA CORPORATION, priority 2004, published 2009)
Read-outs that look alike come from different tables or passages of the source.

Experiments:
Format in all cases: in vivo, C75BL/6 mice
[1] = tested on: mononucleotide repeats; settings: for Mutation Freq / # Mutants: 50 mg/kg intraperitoneal, liver DNA
[2] = tested on: mononucleotide repeats; settings: 50 mg/kg intraperitoneal, liver DNA
Description: (§1) Treatment of mice used in paraquat studies. […] mice were housed and inbred at the University of Wisconsin, with an average life span 30 months. Four groups of three mice were included in the study: 5-month old mice (young control or YC); 5-month old mice treated with paraquat; 24-month old mice (old age); and 24-month old mice treated with paraquat. Paraquat-treated animals received a single intraperitoneal injection of 50 mg/kg body weight dissolved in PBS 24 hours after their last feeding. Each mouse was sacrificed by cervical dislocation.
(§2) Tissue Preparation, DNA Extraction and Quantification. The entire liver from each mouse was dissected, washed with PBS, placed in a 1.5 ml Ependorf tube, snap frozen in liquid nitrogen, and stored at −80° C. DNA was prepared from the mouse liver tissue by using the DNA-IQ Tissue and Hair Extraction Kit (Promega Corporation, Madison, Wis.) and was quantified using the PicoGreen dsDNA Quantitative Kit (Molecular Probes, Eugene, Oreg.) following manufacturers protocols.
Detection of Mutations in Microsatellites using small pool PCR. […] The stability of four short mononucleotide repeats (mBAT-24, mBAT-26, mBat-30, mBAT-37) and three extended mononucleotide repeats (mBAT-59, mBAT-64 and mBAT-67) were evaluated.
SP-PCR was performed for mutation analysis using 1-2 copies of genomic DNA (6-12 pg). PCR cycles and conditions are the same as described above except that the annealing temperature was 58° C.
Identification of PCR Products. Separation and detection of amplified fragments was performed on an ABI PRISM® 3100 Genetic Analyzer following the manufacturer's protocol (Applied Biosystems, Foster City, Calif.). Data was analyzed with the GeneScan and Genotyper computer software packages (Applied Biosystems).
Statistical Analysis. Statistical analysis was done using the statistical Package Sigma Stat version 3, where P value was determined by using one-way ANOVA for each specific group, using Holm-Sidak method did comparisons between the groups.

[3] = tested on: mtDNA; settings: old age paraquat-treated group, three mice
Description: as §1, §2
mtDNA Deletion Detection. Based on the mouse mtDNA sequence, four fluorescence labeled primer pairs were designed to detect both wildtype sequences and mtDNA deletions.
PCR Conditions. […]
Identification of PCR Products. […] Data was analyzed with the GeneScan and Genotyper computer software packages (Applied Biosystems).

[4] = marker mBat-24, Old w/Paraquat (24-month old mice)
[5] = marker mBat-24, Young w/Paraquat (5-month old mice)
[6] = marker mBat-26, Old w/Paraquat (24-month old mice)
[7] = marker mBat-26, Young w/Paraquat (5-month old mice)
[8] = marker mBat-30, Old w/Paraquat (24-month old mice)
[9] = marker mBat-30, Young w/Paraquat (5-month old mice)
[10] = marker mBat-37, Old w/Paraquat (24-month old mice)
[11] = marker mBat-37, Young w/Paraquat (5-month old mice)
[12] = marker mBat-49, Old w/Paraquat (24-month old mice)
[13] = marker mBat-51a, Old w/Paraquat (24-month old mice)
[14] = marker mBat-51b, Old w/Paraquat (24-month old mice)
[15] = marker mBat-52, Old w/Paraquat (24-month old mice)
[16] = marker mBat-59, Old w/Paraquat (24-month old mice)
[17] = marker mBat-59, Young w/Paraquat (5-month old mice)
[18] = marker mBat-61a, Old w/Paraquat (24-month old mice)
[19] = marker mBat-64, Old w/Paraquat (24-month old mice)
[20] = marker mBat-64, Young w/Paraquat (5-month old mice)
[21] = marker mBat-66, Old w/Paraquat (24-month old mice)
[22] = marker mBat-66, Young w/Paraquat (5-month old mice)
[23] = marker mBat-67, Old w/Paraquat (24-month old mice)
[24] = marker mBat-67, Young w/Paraquat (5-month old mice)
[25] = paraquat-treated old age group, loci mBAT-59, mBAT-64, mBAT-66 or mBAT-67 combined

`C[n+]1ccc(-c2cc[n+](C)cc2)cc1` [Paraquat] was tested, and the “Mutation Freq” value [1, 4] was 0.000, the “# Mutants” value [1, 5] was 1 and the “Mutation Freq” value [1, 5] was 0.002. For the same compound, the “# Mutants” value [1, 6] was 0, the “Mutation Freq” value [1, 6] was 0.000 and the “# Mutants” value [1, 7] was 0. For the same compound, the “# Mutants” value [1, 8] was 0, the “Mutation Freq” value [1, 9] was 0.000 and the “# Mutants” value [1, 10] was 0. The “Mutation Freq” value [1, 10] was 0.000, the “# Mutants” value [1, 11] was 1 and the “Mutation Freq” value [1, 11] was 0.001. The “# Mutants” value [1, 12] was 0, the “Mutation Freq” value [1, 12] was 0.000 and the “# Mutants” value [1, 13] was 0. The “Mutation Freq” value [1, 13] was 0.000, the “# Mutants” value [1, 14] was 0 and the “Mutation Freq” value [1, 14] was 0.000. The “# Mutants” value [1, 15] was 0, the “Mutation Freq” value [1, 15] was 0.000 and the “Mutation Freq” value [1, 16] was 0.013. For the same compound, the “# Mutants” value [1, 17] was 4, the “Mutation Freq” value [1, 17] was 0 and the “# Mutants” value [1, 18] was 2. For the same compound, the “Mutation Freq” value [1, 18] was 0.005, the “# Mutants” value [1, 19] was 8 and the “Mutation Freq” value [1, 19] was 0.019. The “# Mutants” value [1, 20] was 1, the “# Mutants” value [1, 21] was 8 and the “Mutation Freq” value [1, 21] was 0.018. For the same compound, the “# Mutants” value [1, 22] was 3, the “Mutation Freq” value [1, 22] was 0 and the “# Mutants” value [1, 23] was 20. For the same compound, the “Mutation Freq” value [1, 23] was 0.051, the “# Mutants” value [1, 24] was 1 and the “mutations detected in loci mBAT-24, mBAT-26, mBat-30, or mBAT-37” value ([1]; old paraquat-treated group, short mononucleotide repeats combined) was “no mutations out of 1608 alleles”. For the same compound, the “mutant alleles / alleles assayed” value [1, 25] was 25/1649, the “mutations in mononucleotide repeat alleles assayed” value [1, 25] was “over 1.8%” and the “# Mutants” value [2, 4] was 0. For the same compound, the “Mutation Freq” value [2, 7] was 0.000, the “Mutation Freq” value [2, 8] was 0.000 and the “# Mutants” value [2, 9] was 0. For the same compound, the “# Mutants” value [2, 16] was 6, the “Mutation Freq” value [2, 20] was 0 and the “Mutation Freq” value [2, 24] was 0. For the same compound, the “mice showing Δ-mtDNA4977” value [3] was “All three”.
